Test results published in US7501398B2, “Inhibitor of the folding of the HIV-1-protease as antiviral agent” (priority 2005, dated 2009).

What was measured:
HIV-1-Protease [1] = biological target: T1, HIV-1-Protease (Human immunodeficiency virus type 1 group M subtype B, UniProt P04585, C555A/C583A/L521I/L551I/Q495K); details: protease:peptide 1:3; protease alone 79%
Protocol: Ultraviolet CD spectra were recorded on a Jasco J-810 spectropolarimeter in nitrogen atmosphere at room temperature using 0.1 cm path-length quartz cell. Each spectrum was recorded between 260-200 nm. The data were collected at a rate of 10 nm/min with a wavelength step of 0.2 nm and a time constant of 2 s. The spectra were corrected with respect to the baseline and normalized to the aminoacidic concentration. The protein and the peptide were dissolved in a 20 mM phosphate buffer with 0.8 M NaCl at the same concentration used for the activity assays. The CD spectra were analyzed in terms of contribution of secondary structure elements using the K2D method based on comparison with CD spectra of proteins and peptides with known secondary structure.
The conformational properties of the inhibited protease have been investigated by means of UV circular dichroism experiments.

HIV-1-Protease [2] = biological target: T1, HIV-1-Protease; assay: biochemical; type: biochemical; parameters: Recombinant HIV-1-Protease, expressed in E. Coli; purchased Sigma P7338; host or cells: E. coli; details: for Ki: pH 6, 37 °C; for variation in the kinetic parameters with respect to the uninhibited case: control peptides used in the same way as p-S8
Protocol: Recombinant HIV-1-Protease, expressed in E. Coli (Sigma Cat. no. P7338)contained five mutations to restrict autoproteolysis (Q7K, L33I, […]) and to restrict cysteine thiol oxidation (C67A and C95A). The enzyme was stored at (−70° C. as solution with concentration 25 mg/63 mL in dilute HCl, (pH=1.6)). A chromogenic substrate for HIV-1-PR (Sigma Cat. no. H5535) was obtained as a 1 mg desiccate, diluted with 0.1 ml of DMSO, and stored at −20° C. Protease assisted cleavage between the Nle and the Phe(NO2) residues of substrate entails a blue-shift of the absorption maximum (277 nm to 272 nm). It can be adequately monitored observing the continuous decrease of absorbance at […]. […] Res. Comm 168:274-280.
After that 1 mg of inhibitor peptide was dissolved in […] of DMSO, 4 ml of this solution were then diluted with 16 ml of DMSO and 180 ml of the buffer used for assay.
The buffer was prepared by adding […] NaCl, 1 mM EDTA and 1 mM dithiothreitol to a 20 mM phosphate buffer (pH 6).
The sequences of these control peptides are […] (SEQ ID NO:2) and […] (SEQ ID NO:3) corresponding to fragments 61-70 and 9-19, respectively, of the HIV-1-PR sequence, as well as the […] (SEQ ID NO:4) sequence, which is not related in any way to the protease.
Each measure was performed recording the absorbance at 300 nm (4.13 eV) in a standard UV-vis spectrophotometer (Jasco V-560). […] The sample in the cuvette was exposed to a constant temperature (37±0.05° C.) provided by continuous circulation of water from a water bath to the cell holder via a circulation pump.
After proper thermal stabilization of the substrate dissolved in the buffer (pH 6), the absorbance at 300 nm was recorded. We performed 6 measures spanning a range of substrate concentrations from 50 μM to 250 μM. The reaction was initiated by adding 2.78 μg of enzyme and recording the absorbance decrease at 300 nm for 1200 sec. In all the reported measures the enzyme has thus a nominal concentration of 1.8 μM. Since, to our knowledge, no accurate measure has been published of the dimerization constant of HIV-1-PR at pH=6.0, it is difficult to estimate precisely the active site concentration in our assay.
In all the reported measures the final concentration of inhibitor was [I0]=[…]. The Absorbance decrease at 300 nm was recorded for 1200 sec.

[3] = enzyme:peptide 1:3, pH 6, 37 °C

Compound | beta-sheet content of protease plus peptide (CD) (HIV-1-Protease [1]) | inhibition mechanism (HIV-1-Protease [2]) | Ki (HIV-1-Protease [2]; dissociation constant KI (inhibitor-free enzyme)) | Ki (HIV-1-Protease [2]; dissociation constant K′I (inhibitor-substrate-enzyme complex)) | apparent dissociation constant K′M of the inhibited reaction (HIV-1-Protease [2]; [3]) | maximum velocity vmax of the inhibited reaction (HIV-1-Protease [2]; [3]) | variation in the kinetic parameters with respect to the uninhibited case (HIV-1-Protease [2]) | initial velocity v0 of the reaction in presence of peptide (HIV-1-Protease [2]; [S0]=125 mM (FIG. 7(b)))
CC[C@H](C)[C@H](NC(=O)[C@H](CCC(N)=O)NC(=O)[C@@H](NC(=O)[C@H](CC(C)C)NC(=O)[C@H](CC(C)C)NC(=O)[C@H](CC(N)=O)NC(=O)[C@H](CCCNC(=N)N)NC(=O)CNC(=O)[C@@H](NC(=O)[C@@H](NC(=O)[C@H](CC(N)=O)NC(C)=O)[C@@H](C)CC)[C@@H](C)CC)[C@@H](C)O)C(N)=O [p-S8, 83N, 84I, 85I, 86G, 87R, 88N, 89L, 90L, 91T, 92Q, 93I] | 45% | non-competitive | 380 ± 810 nM | 180 ± 234 nM | 332 ± 191 mM | 0.026 ± 0.011 mM/s |  | 
LSQETFDLWKLLPEN (Designed Peptide) [K3, reference compound] |  |  |  |  |  |  | no appreciable variation | 
QILIEICGHK (Fragment 61-70 of the HIV-1-PR sequence) [K1, reference compound] |  |  |  |  |  |  | no appreciable variation | 0.051 µM/s
